Test results from patent US6623933B1 (priority 1999, dated 2003).

Tests used:
Assay type in all cases: cell-based
NR1000/NR2B = target: T1, NR1000/NR2B (Rattus norvegicus, UniProt P35439+Q00960); assay: NMDA receptor currents in Ba-Ringer, Xenopus oocytes, Example 3
T1 construct: expressed in transfected cells; host or cells: Xenopus oocytes injected with RNA

NR1000/NR2A = NR1000/NR2A (Rattus norvegicus, UniProt P35439+Q00959); assay: NMDA-induced currents of NR1 splice variants, Xenopus oocytes, Example 4; parameters: expressed in transfected cells; host or cells: Xenopus oocytes injected with NR1000 and NR2A mRNA; settings: NR1000/2A; 100 μM PS; 200 μM NMDA+10 μM glycine
Procedure: (§1) Overnight cultures (500 ml) of transformed bacterial cells were prepared in order to grow sufficient quantities for maxiprep isolation of the plasmid CDNA. Maxipreps were done using a Sorvall RC-5B ultracentrifuge, Qiagen columns and cDNA was quantitated with spectrophotometry (OD260 and OD260/ OD280 ratio). The resulting plasmid cDNA was linearized by digestion with an appropriate restriction enzyme that cleaves distal to the cDNA insert (XhoI for NR2A or NotI for NR1100, NR1000, NR1111, NR1011, NR1101, NR1001). […] The samples were stored at −20° C. until use.
(§2) In vitro transcription was performed using the Ambion mMessage mMachine kit with T7 (NR1100, NR1000, NR1111, NR1011, NR1101, NR1001) RNA polymerase. The reaction was assembled on ice and allowed to incubate at 37° C. for 1-2 hr. The resulting mRNA was precipitated (reaction termination) using lithium chloride/5 mM EDTA solution and dissolved in RNase-free H2O. The concentration (OD260) and OD260/OD280 ratio (should be more than 1.5) was determined by spectrophotometer. The yield of mRNA was generally 15-30 μg. mRNA was stored at −80° C. until use.
(§3) Intracellular recording microelectrodes were fabricated from 100 μl borosilicate glass disposable micropipettes using a 2-step protocol on a standard horizontal Flaming-Brown micropipette puller.

NR1101/NR2A = NR1101/NR2A (Rattus norvegicus, UniProt P35439+Q00959); assay: as above; parameters: expressed in transfected cells; host or cells: Xenopus oocytes injected with NR1101 and NR2A mRNA; settings: NR1101/2A; 100 μM PS; 200 μM NMDA+10 μM glycine
Procedure: as §1, §2, §3

T1 sequence (Q00960 27-1482, other chains not shown): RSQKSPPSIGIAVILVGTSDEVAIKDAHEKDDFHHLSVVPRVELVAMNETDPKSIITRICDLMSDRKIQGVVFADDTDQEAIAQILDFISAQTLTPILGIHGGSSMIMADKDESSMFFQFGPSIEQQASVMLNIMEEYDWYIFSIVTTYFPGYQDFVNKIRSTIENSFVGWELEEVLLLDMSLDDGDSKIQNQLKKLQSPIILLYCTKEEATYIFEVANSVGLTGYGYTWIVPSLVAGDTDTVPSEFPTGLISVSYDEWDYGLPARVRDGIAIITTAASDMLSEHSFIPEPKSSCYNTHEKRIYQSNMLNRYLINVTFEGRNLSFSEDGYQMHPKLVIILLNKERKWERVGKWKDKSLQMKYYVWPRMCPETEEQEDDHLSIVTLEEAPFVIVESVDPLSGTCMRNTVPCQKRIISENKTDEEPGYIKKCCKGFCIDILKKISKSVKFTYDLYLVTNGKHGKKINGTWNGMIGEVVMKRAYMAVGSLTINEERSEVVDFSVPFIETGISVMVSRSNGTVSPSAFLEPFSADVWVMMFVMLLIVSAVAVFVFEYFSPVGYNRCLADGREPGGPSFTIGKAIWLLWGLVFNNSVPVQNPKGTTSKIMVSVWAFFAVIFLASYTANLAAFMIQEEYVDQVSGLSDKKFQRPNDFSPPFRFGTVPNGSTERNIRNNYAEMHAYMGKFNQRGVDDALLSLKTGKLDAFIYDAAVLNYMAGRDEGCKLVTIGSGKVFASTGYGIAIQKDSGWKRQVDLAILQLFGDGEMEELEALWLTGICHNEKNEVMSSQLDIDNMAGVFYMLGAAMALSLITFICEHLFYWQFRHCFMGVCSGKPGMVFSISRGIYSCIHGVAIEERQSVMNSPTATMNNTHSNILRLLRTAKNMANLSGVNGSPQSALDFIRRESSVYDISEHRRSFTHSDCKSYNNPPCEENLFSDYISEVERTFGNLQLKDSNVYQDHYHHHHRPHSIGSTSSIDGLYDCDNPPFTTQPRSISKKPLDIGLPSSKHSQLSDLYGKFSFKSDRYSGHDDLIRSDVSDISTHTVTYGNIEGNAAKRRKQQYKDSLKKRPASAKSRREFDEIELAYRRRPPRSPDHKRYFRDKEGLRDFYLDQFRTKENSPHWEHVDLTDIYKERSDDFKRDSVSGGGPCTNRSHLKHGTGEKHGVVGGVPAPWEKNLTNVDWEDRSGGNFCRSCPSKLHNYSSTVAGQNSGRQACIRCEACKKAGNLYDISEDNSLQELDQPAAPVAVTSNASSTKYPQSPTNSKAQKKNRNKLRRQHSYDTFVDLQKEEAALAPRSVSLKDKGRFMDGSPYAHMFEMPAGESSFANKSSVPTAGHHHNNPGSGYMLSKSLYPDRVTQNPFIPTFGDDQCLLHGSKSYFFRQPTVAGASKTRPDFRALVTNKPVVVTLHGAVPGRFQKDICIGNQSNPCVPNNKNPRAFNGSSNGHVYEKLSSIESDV
NR1000/NR2A, sequence (Q00959 23-1464, other chains not shown): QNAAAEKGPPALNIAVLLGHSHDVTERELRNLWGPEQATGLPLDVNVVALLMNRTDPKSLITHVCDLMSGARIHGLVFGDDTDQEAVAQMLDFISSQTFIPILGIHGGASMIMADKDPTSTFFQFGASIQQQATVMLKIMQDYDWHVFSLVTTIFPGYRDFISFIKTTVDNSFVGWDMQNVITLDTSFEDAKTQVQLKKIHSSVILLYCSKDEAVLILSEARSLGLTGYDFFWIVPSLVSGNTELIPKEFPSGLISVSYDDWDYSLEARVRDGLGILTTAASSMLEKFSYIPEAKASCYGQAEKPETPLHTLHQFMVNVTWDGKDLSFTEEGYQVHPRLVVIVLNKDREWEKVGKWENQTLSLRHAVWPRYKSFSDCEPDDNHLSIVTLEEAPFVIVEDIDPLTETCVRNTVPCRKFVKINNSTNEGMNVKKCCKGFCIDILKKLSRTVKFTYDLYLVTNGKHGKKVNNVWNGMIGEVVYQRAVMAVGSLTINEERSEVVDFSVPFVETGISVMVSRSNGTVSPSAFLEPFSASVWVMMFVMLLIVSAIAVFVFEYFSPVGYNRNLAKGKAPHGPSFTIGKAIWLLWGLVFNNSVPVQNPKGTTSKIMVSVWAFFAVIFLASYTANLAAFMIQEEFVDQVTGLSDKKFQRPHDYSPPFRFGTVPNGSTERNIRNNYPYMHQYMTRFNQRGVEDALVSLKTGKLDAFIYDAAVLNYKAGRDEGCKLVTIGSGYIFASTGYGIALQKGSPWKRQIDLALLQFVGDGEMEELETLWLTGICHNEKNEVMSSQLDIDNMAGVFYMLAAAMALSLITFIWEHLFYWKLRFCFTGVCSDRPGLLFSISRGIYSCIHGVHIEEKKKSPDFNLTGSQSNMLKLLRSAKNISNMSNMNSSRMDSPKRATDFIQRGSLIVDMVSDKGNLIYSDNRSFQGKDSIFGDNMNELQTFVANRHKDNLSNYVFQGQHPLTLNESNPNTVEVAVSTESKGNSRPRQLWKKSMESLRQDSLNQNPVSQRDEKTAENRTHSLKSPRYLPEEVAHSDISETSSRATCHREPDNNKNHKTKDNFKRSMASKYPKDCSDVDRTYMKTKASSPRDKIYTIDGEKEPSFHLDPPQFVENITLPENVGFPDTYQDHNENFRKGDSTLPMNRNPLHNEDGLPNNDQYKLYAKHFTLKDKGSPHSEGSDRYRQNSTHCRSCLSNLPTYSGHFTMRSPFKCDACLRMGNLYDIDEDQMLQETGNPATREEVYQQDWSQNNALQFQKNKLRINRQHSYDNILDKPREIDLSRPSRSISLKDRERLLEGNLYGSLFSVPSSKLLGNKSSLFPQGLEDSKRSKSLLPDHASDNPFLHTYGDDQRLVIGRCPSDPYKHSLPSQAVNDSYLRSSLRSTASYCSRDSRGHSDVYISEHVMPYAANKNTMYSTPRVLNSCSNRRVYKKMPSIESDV
NR1101/NR2A, sequence (Q00959 23-1464, other chains not shown): as above

pregnenolone sulfate [PS]
PS Emax (NR1000/NR2B): 0.58 ± 0.04 | PS nHill (NR1000/NR2B): 1.52 ± 0.15 | maximum relative current (MRC) (NR1000/NR2A): 1.29 | maximum relative current (MRC) (NR1101/NR2A): 1.78
